Values joined by “and” are separate entries in the source; they are usually repeats but may differ in a detail not shown here. Equal values may be shown once. Toxic doses and inconclusive results are not listed. How the source made its calls: active means survival T/C of 150% or more; inactive means T/C below 125% in these data.
Test system: P388 leukemia ip, CD2F1 mice, survival T/C
Experiment: NCI In Vivo Anticancer Drug Screen. Data for tumor model P388 Leukemia (intraperitoneal) in CD2F1 (CDF1) mice
Details: endpoint: median survival time, higher = longer survival
How it was run: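 Mice carrying the transplanted tumor received test compound or vehicle. Survival was recorded in each group, and the value is the treated-group measurement divided by that of the vehicle-treated control group.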

[1] = dose: 25.0 mg/kg/injection, schedule: Q01DX005 (ip), vehicle: Klucel (hydroxypropylcellulose) (HPC)
[2] = dose: 50.0 mg/kg/injection, schedule: Q01DX005 (ip), vehicle: Klucel (hydroxypropylcellulose) (HPC)
[3] = dose: 12.5 mg/kg/injection, schedule: Q01DX009 (ip), vehicle: saline
[4] = dose: 25.0 mg/kg/injection, schedule: Q01DX009 (ip), vehicle: saline
[5] = dose: 100.0 mg/kg/injection, schedule: Q01DX005 (ip), vehicle: Klucel (hydroxypropylcellulose) (HPC)
[6] = dose: 50.0 mg/kg/injection, schedule: Q01DX005 (ip), vehicle: saline with Tween-80
[7] = dose: 100.0 mg/kg/injection, schedule: Q01DX005 (ip), vehicle: saline with Tween-80
[8] = dose: 200.0 mg/kg/injection, schedule: Q01DX005 (ip), vehicle: Klucel (hydroxypropylcellulose) (HPC)
[9] = dose: 200.0 mg/kg/injection, schedule: Q01DX005 (ip), vehicle: saline with Tween-80

Measured: T/C

COc1ccc(CC2c3cc(OC)c(OC)cc3C=CN2C)cc1OC (stereo not drawn)
inactive: dose: 12.5 mg/kg/injection, schedule: Q01DX005 (ip), vehicle: Klucel (hydroxypropylcellulose) (HPC) 99 % of control | [1] 103 % of control | [2] 96 % of control

CN(C)C1(c2ccccc2)N=NN=S1C (stereo not drawn)
inactive: dose: 100.0 mg/kg/injection, schedule: Q04DX003 (ip), vehicle: saline with Tween-80 105 % of control | dose: 200.0 mg/kg/injection, schedule: Q04DX003 (ip), vehicle: saline with Tween-80 105 % of control

CCn1c(Cl)c(/C=N\Nc2cccc([N+](=O)[O-])c2)c2ccccc21
inactive: dose: 25.0 mg/kg/injection, schedule: Q01DX001 (ip), vehicle: Klucel (hydroxypropylcellulose) (HPC) 93 % of control | dose: 50.0 mg/kg/injection, schedule: Q01DX001 (ip), vehicle: Klucel (hydroxypropylcellulose) (HPC) 87 % of control | dose: 100.0 mg/kg/injection, schedule: Q01DX001 (ip), vehicle: Klucel (hydroxypropylcellulose) (HPC) 86 % of control and 93 % of control

CCCCOCN(COCCCC)c1ccccc1
inactive: dose: 100.0 mg/kg/injection, schedule: Q01DX001 (ip), vehicle: saline with Tween-80 104 % of control | dose: 200.0 mg/kg/injection, schedule: Q01DX001 (ip), vehicle: saline with Tween-80 113 % of control | dose: 400.0 mg/kg/injection, schedule: Q01DX001 (ip), vehicle: saline with Tween-80 109 % of control

ClCC(Br)CBr (stereo not drawn) (tested in a mixture with another compound)
inactive: [3] 96 % of control | [4] 96 % of control

NC(=S)c1cn(C2OC(CO)C(O)C2O)c2ncnc(N)c12 (stereo not drawn)
inactive: dose: 0.31 mg/kg/injection, schedule: Q01DX009 (ip), vehicle: saline 100 % of control | dose: 0.63 mg/kg/injection, schedule: Q01DX009 (ip), vehicle: saline 109 % of control | dose: 1.4 mg/kg/injection, schedule: Q01DX009 (ip), vehicle: saline with Tween-80 119 % of control | dose: 5.0 mg/kg/injection, schedule: Q01DX009 (ip), vehicle: saline with Tween-80 86 % of control

COc1ccc(/C=C2\SC(=O)N(C)C2=O)cc1OC
inactive: [2] 88 % of control | [5] 89 % of control

C=CC(C)(CCC=C(C)C)N=C=O (stereo not drawn)
inactive: dose: 12.5 mg/kg/injection, schedule: Q01DX009 (ip), vehicle: distilled water + Tween-80 100 % of control | dose: 25.0 mg/kg/injection, schedule: Q01DX009 (ip), vehicle: distilled water + Tween-80 91 % of control | dose: 50.0 mg/kg/injection, schedule: Q01DX009 (ip), vehicle: distilled water + Tween-80 105 % of control | dose: 100.0 mg/kg/injection, schedule: Q01DX009 (ip), vehicle: distilled water + Tween-80 114 % of control | dose: 200.0 mg/kg/injection, schedule: Q01DX009 (ip), vehicle: distilled water + Tween-80 108 % of control

Cn1c(N=P(c2ccccc2)(c2ccccc2)c2ccccc2)cc(=O)n(C)c1=O
inactive: dose: 60.0 mg/kg/injection, schedule: Q01DX005 (ip), vehicle: Klucel (hydroxypropylcellulose) (HPC) 101 % of control | dose: 120.0 mg/kg/injection, schedule: Q01DX005 (ip), vehicle: Klucel (hydroxypropylcellulose) (HPC) 102 % of control | dose: 240.0 mg/kg/injection, schedule: Q01DX005 (ip), vehicle: Klucel (hydroxypropylcellulose) (HPC) 101 % of control

Cn1cccc1/C=N/N1CC(=O)N(c2cccc(Cl)c2)CC1=O
inactive: [6] 100 % of control | [7] 97 % of control

Cc1cc([N+](=O)[O-])c(C)c(Br)c1C
inactive: dose: 50.0 mg/kg/injection, schedule: Q01DX009 (ip), vehicle: saline with Tween-80 90 % of control | dose: 100.0 mg/kg/injection, schedule: Q01DX009 (ip), vehicle: saline with Tween-80 92 % of control | dose: 200.0 mg/kg/injection, schedule: Q01DX009 (ip), vehicle: saline with Tween-80 99 % of control

CC(=O)Oc1ccc(OC(C)=O)c(CBr)c1CBr
inactive: dose: 25.0 mg/kg/injection, schedule: Q04DX002 (ip), vehicle: Klucel (hydroxypropylcellulose) (HPC) 100 % of control | dose: 50.0 mg/kg/injection, schedule: Q04DX002 (ip), vehicle: Klucel (hydroxypropylcellulose) (HPC) 95 % of control | dose: 100.0 mg/kg/injection, schedule: Q04DX002 (ip), vehicle: Klucel (hydroxypropylcellulose) (HPC) 87 % of control and 93 % of control

O=C(NC1CCCCC1)O/N=C/c1ccccn1
inactive: dose: 50.0 mg/kg/injection, schedule: Q01DX001 (ip), vehicle: other 95 % of control | dose: 100.0 mg/kg/injection, schedule: Q01DX001 (ip), vehicle: other 95 % of control | dose: 200.0 mg/kg/injection, schedule: Q01DX001 (ip), vehicle: other 100 % of control

O=C(OC1C2COC(O2)C(OC(=O)c2ccccc2)C1OC(=O)c1ccccc1)c1ccccc1 (stereo not drawn)
inactive: [2] 104 % of control | [5] 101 % of control | [8] 104 % of control

CC(C)CC(=N)CC(C)C
inactive: [6] 100 % of control | [7] 100 % of control | [9] 96 % of control

CC(=O)N(C)c1ccc(Nc2cc(S(=O)(=O)O)c(N)c3c2C(=O)c2ccccc2C3=O)cc1
inactive: dose: 60.0 mg/kg/injection, schedule: Q01DX005 (ip), vehicle: saline 98 % of control | dose: 120.0 mg/kg/injection, schedule: Q01DX005 (ip), vehicle: saline 100 % of control | dose: 240.0 mg/kg/injection, schedule: Q01DX005 (ip), vehicle: saline 90 % of control

c1ccc2c(c1)Sc1ccccc1N2CCCN1CCCC1
inactive: [3] 105 % of control | [4] 104 % of control | dose: 25.0 mg/kg/injection, schedule: Q04DX002 (ip), vehicle: saline 111 % of control | dose: 50.0 mg/kg/injection, schedule: Q01DX009 (ip), vehicle: saline 112 % of control and 120 % of control | dose: 50.0 mg/kg/injection, schedule: Q04DX002 (ip), vehicle: saline 111 % of control | dose: 100.0 mg/kg/injection, schedule: Q04DX002 (ip), vehicle: saline 101 % of control

COc1ccc(Cc2cc3c(cc2OCCO)OCO3)cc1
inactive: [6] 105 % of control | [7] 103 % of control | [9] 109 % of control

CN=C(c1ccc(NC(=O)c2ccc(C(=O)Nc3ccc(C(=NC)N4CCCC4)cc3)cc2)cc1)N1CCCC1
inactive: dose: 0.39 mg/kg/injection, schedule: Q01DX005 (ip), vehicle: Klucel (hydroxypropylcellulose) (HPC) 99 % of control | dose: 0.78 mg/kg/injection, schedule: Q01DX005 (ip), vehicle: Klucel (hydroxypropylcellulose) (HPC) 93 % of control | dose: 1.56 mg/kg/injection, schedule: Q01DX005 (ip), vehicle: Klucel (hydroxypropylcellulose) (HPC) 94 % of control | dose: 3.12 mg/kg/injection, schedule: Q01DX005 (ip), vehicle: Klucel (hydroxypropylcellulose) (HPC) 97 % of control

Cn1nnc(/C(N)=N/N=C/c2ccccc2)n1
inactive: dose: 50.0 mg/kg/injection, schedule: Q01DX009 (ip), vehicle: Klucel (hydroxypropylcellulose) (HPC) 100 % of control | dose: 100.0 mg/kg/injection, schedule: Q01DX009 (ip), vehicle: Klucel (hydroxypropylcellulose) (HPC) 102 % of control | dose: 200.0 mg/kg/injection, schedule: Q01DX009 (ip), vehicle: Klucel (hydroxypropylcellulose) (HPC) 94 % of control

CC1N(/N=C/c2ccccc2)C(c2ccccc2)C(c2ccccc2)N1/N=C/c1ccccc1 (stereo not drawn)
inactive: [2] 99 % of control | [5] 98 % of control | [8] 99 % of control

C=C1C(=O)[C@@]23CC1C(O)[C@@H](OC(C)=O)[C@@H]2C1(C)C(OC(C)=O)C[C@@H](OC(C)=O)C(C)(C)[C@@H]1C[C@H]3OC(C)=O (stereo partly drawn)
inactive: [1] 102 % of control | [2] 117 % of control

— PubChem BioAssay AID330 (DTP/NCI, 2004)
